From ChEMBL document CHEMBL4507273 (2021)

Columns and labels:
[1] = system: Fibroblast growth factor receptor 3 (Homo sapiens), P22607 [G697C]; details: Compound concentration 1000.0 nM
[2] = system: Epidermal growth factor receptor (Homo sapiens), P00533 [L861Q]; details: Compound concentration 1000.0 nM
[3] = target: Tyrosine-protein kinase Lck (Homo sapiens) (UniProt P06239); details: Compound concentration 1000.0 nM
[4] = system: Receptor-type tyrosine-protein kinase FLT3 (Homo sapiens), P36888 [R834Q]; details: Compound concentration 1000.0 nM
[5] = target: Phosphatidylinositol 3-kinase catalytic subunit type 3 (Homo sapiens) (UniProt Q8NEB9); details: Compound concentration 1000.0 nM
[6] = target: Mitogen-activated protein kinase kinase kinase 1 (Homo sapiens) (UniProt Q13233); details: Compound concentration 1000.0 nM
[7] = target: Cyclin-dependent kinase 19 (Homo sapiens) (UniProt Q9BWU1); details: Compound concentration 1000.0 nM
[8] = target: Insulin receptor (Homo sapiens) (UniProt P06213); details: Compound concentration 1000.0 nM
[9] = target: Inhibitor of nuclear factor kappa-B kinase subunit beta (Homo sapiens) (UniProt O14920); details: Compound concentration 1000.0 nM
[10] = target: Casein kinase I isoform epsilon (Homo sapiens) (UniProt P49674); details: Compound concentration 1000.0 nM
[11] = target: Ephrin type-B receptor 1 (Homo sapiens) (UniProt P54762); details: Compound concentration 1000.0 nM
[12] = target: Myotonin-protein kinase (Homo sapiens) (UniProt Q09013); details: Compound concentration 1000.0 nM
[13] = target: Mast/stem cell growth factor receptor Kit (Homo sapiens) (UniProt P10721); details: Compound concentration 1000.0 nM
[14] = target: Serine/threonine-protein kinase Nek9 (Homo sapiens) (UniProt Q8TD19); details: Compound concentration 1000.0 nM
[15] = target: T1, 5-hydroxytryptamine receptor 1A (Homo sapiens, UniProt P08908); assay: GPCRScan assay: inhibition of 5-HT1A; set-up: radioligand conc. used [nm] 0.5 – 1.0, parental cells stable CHO
T1 sequence (P08908 whole entry): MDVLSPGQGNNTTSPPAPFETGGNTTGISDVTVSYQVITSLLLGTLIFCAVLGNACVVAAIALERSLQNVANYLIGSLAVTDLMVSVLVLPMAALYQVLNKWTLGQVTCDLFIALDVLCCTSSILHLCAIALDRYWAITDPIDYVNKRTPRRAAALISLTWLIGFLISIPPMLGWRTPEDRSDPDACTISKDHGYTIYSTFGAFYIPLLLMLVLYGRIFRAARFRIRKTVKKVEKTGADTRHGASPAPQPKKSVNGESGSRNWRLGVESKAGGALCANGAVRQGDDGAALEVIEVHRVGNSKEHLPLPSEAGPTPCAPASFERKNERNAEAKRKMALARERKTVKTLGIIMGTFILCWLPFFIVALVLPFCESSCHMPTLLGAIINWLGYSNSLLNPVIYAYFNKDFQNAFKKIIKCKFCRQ

[16] = system: Proto-oncogene tyrosine-protein kinase receptor Ret (Homo sapiens), P07949 [M918T]; details: Compound concentration 1000.0 nM
[17] = target: SRSF protein kinase 1 (Homo sapiens) (UniProt Q96SB4); details: Compound concentration 1000.0 nM
[18] = target: Mitogen-activated protein kinase 7 (Homo sapiens) (UniProt Q13164); details: Compound concentration 1000.0 nM
[19] = target: T2, Alpha-2C adrenergic receptor (Homo sapiens) (UniProt P18825); details: Compound concentration 10.0 uM
T2 sequence (whole entry): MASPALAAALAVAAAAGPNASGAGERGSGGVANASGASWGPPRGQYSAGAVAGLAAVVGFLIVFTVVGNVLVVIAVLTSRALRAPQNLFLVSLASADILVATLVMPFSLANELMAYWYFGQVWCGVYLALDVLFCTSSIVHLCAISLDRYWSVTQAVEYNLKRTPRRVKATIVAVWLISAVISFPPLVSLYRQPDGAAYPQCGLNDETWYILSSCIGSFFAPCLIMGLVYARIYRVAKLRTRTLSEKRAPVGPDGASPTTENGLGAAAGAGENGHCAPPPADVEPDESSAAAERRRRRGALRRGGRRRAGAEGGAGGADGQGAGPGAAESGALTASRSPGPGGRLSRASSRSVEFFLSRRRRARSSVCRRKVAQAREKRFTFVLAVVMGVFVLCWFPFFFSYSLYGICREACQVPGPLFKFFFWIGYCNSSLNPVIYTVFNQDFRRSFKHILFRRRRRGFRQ

[20] = target: Tyrosine-protein kinase Blk (Homo sapiens) (UniProt P51451); details: Compound concentration 1000.0 nM
[21] = target: Rho-associated protein kinase 1 (Homo sapiens) (UniProt Q13464); details: Compound concentration 1000.0 nM
[22] = target: Phosphatidylinositol 4,5-bisphosphate 3-kinase catalytic subunit alpha isoform (Homo sapiens) (UniProt P42336); details: Compound concentration 1000.0 nM
D(2) dopamine receptor = D(2) dopamine receptor (Homo sapiens, UniProt P14416); details: Compound concentration 10.0 uM
[23] = target: cAMP-dependent protein kinase catalytic subunit PRKX (Homo sapiens) (UniProt P51817); details: Compound concentration 1000.0 nM
[24] = target: Beta-2 adrenergic receptor (Homo sapiens) (UniProt P07550); details: Compound concentration 10.0 uM
[25] = target: T3, Alpha-1D adrenergic receptor (Homo sapiens, UniProt P25100); assay: GPCRScan assay: inhibition of Alpha1D; set-up: radioligand conc. used [nm] 0.3 – 1.0, parental cells stable
T3 sequence (P25100 whole entry): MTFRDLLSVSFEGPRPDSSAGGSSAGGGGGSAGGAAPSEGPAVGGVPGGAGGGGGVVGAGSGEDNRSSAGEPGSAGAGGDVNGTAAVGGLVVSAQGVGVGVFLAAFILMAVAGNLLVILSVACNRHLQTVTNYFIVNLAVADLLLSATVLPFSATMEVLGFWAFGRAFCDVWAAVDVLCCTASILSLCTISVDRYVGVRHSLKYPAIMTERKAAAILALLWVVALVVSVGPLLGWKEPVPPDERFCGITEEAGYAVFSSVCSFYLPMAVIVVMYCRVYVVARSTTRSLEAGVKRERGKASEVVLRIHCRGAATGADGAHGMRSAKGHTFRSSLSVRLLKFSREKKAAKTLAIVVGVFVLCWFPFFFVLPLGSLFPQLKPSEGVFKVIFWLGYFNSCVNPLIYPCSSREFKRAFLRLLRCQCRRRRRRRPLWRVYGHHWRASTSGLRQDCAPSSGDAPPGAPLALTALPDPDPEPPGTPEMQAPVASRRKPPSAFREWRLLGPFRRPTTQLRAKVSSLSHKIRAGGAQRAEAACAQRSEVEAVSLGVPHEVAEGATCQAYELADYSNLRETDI

Phosphatidylinositol 4,5-bisphosphate 3-kinase catalytic subunit alpha isoform (Homo sapiens), sequence (P42336 whole entry, canonical isoform): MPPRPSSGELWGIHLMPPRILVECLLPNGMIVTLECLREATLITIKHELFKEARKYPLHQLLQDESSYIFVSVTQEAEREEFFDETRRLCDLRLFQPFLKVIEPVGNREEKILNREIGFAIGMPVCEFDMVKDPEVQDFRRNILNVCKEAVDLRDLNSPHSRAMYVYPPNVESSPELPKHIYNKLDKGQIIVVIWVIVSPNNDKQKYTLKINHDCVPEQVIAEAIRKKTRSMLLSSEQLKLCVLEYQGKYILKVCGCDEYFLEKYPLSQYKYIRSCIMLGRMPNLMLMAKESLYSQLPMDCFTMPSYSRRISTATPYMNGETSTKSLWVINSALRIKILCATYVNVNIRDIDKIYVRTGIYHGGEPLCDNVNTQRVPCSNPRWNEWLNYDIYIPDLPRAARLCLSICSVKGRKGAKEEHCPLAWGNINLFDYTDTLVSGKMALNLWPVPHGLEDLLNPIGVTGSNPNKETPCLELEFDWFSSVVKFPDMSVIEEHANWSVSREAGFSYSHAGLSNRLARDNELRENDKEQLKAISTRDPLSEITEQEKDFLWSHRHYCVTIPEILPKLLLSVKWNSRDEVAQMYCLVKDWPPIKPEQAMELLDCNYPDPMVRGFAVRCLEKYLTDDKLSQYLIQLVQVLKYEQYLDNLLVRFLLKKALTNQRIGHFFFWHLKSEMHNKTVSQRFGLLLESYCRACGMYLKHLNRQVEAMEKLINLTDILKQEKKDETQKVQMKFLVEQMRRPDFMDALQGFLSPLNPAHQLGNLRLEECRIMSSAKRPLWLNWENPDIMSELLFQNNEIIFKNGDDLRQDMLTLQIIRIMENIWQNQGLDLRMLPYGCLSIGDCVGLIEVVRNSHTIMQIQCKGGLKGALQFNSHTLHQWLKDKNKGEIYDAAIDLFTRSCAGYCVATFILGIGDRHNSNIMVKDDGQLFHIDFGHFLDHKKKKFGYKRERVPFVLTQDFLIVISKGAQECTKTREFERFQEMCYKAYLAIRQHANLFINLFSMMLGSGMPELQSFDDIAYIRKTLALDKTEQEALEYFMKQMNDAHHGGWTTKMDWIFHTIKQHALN
Proto-oncogene tyrosine-protein kinase receptor Ret (Homo sapiens), P07949 [M918T], sequence (P07949 whole entry M918T): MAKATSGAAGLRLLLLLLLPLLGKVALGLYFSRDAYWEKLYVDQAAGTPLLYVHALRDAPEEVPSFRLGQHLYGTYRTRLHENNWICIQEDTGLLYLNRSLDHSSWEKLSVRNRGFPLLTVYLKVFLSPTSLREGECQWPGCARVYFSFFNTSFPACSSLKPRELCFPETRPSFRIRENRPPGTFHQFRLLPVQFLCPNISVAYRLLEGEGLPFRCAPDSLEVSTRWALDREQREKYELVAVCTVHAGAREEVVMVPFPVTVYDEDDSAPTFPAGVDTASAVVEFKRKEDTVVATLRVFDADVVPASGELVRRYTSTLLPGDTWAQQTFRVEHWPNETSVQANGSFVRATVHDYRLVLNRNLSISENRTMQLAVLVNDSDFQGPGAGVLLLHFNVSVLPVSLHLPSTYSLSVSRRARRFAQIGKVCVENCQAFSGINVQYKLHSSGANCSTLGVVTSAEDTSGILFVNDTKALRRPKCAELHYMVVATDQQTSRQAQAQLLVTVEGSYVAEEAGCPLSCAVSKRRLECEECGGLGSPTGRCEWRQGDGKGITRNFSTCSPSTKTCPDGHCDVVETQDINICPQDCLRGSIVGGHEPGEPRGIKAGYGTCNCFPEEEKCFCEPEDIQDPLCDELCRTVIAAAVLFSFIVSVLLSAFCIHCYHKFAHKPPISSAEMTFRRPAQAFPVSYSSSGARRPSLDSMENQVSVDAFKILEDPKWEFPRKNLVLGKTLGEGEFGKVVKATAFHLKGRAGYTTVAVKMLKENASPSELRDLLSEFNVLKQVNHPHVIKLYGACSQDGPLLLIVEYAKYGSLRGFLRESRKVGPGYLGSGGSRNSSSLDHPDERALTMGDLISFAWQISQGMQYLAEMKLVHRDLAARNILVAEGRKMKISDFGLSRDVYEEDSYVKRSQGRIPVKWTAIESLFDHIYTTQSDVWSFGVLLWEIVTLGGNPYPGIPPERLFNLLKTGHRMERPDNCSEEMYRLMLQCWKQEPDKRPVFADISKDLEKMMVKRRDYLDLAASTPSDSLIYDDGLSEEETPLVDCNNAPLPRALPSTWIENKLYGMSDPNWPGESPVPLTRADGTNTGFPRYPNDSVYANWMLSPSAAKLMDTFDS
Serine/threonine-protein kinase Nek9 (Homo sapiens), sequence (Q8TD19 whole entry): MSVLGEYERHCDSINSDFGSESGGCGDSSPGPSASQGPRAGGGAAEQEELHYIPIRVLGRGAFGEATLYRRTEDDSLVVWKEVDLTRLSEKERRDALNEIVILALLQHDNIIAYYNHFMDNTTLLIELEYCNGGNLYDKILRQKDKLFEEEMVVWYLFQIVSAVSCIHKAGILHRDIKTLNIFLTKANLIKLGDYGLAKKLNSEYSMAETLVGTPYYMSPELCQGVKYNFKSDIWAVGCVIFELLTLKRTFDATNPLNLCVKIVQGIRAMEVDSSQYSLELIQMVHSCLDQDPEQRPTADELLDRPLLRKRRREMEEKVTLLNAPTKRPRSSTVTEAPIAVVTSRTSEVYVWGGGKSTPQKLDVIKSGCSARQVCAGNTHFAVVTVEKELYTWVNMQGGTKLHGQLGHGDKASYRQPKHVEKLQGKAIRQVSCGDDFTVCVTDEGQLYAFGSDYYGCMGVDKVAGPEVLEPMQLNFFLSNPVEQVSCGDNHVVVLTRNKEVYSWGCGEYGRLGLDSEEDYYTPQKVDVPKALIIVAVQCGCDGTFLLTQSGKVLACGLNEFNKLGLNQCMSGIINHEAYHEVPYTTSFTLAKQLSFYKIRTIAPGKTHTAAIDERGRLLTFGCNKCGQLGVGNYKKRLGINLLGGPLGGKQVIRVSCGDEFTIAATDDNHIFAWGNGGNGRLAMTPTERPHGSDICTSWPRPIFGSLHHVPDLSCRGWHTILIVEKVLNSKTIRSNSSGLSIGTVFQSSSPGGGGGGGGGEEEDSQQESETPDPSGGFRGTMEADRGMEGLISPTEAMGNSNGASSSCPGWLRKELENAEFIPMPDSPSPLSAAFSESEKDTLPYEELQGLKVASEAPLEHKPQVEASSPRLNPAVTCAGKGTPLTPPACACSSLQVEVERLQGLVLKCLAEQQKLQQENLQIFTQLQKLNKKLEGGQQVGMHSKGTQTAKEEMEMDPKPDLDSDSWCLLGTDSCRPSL
Myotonin-protein kinase (Homo sapiens), sequence (Q09013 whole entry): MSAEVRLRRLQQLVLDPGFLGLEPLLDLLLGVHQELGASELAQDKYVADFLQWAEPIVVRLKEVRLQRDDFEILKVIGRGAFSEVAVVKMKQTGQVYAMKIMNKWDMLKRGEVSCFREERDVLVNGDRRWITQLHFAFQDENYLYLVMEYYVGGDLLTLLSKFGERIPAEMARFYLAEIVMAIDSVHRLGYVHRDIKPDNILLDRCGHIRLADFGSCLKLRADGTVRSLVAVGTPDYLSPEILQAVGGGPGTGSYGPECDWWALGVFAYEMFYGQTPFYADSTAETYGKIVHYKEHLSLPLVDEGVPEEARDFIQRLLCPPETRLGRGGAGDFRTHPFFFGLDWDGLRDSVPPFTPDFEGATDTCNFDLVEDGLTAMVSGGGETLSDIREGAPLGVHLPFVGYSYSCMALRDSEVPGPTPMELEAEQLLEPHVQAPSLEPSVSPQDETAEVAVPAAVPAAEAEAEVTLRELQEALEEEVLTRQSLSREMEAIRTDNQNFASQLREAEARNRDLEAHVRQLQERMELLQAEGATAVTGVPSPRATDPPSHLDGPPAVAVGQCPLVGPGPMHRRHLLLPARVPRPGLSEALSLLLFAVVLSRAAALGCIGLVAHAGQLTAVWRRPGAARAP
Fibroblast growth factor receptor 3 (Homo sapiens), P22607 [G697C], sequence (P22607 whole entry G697C): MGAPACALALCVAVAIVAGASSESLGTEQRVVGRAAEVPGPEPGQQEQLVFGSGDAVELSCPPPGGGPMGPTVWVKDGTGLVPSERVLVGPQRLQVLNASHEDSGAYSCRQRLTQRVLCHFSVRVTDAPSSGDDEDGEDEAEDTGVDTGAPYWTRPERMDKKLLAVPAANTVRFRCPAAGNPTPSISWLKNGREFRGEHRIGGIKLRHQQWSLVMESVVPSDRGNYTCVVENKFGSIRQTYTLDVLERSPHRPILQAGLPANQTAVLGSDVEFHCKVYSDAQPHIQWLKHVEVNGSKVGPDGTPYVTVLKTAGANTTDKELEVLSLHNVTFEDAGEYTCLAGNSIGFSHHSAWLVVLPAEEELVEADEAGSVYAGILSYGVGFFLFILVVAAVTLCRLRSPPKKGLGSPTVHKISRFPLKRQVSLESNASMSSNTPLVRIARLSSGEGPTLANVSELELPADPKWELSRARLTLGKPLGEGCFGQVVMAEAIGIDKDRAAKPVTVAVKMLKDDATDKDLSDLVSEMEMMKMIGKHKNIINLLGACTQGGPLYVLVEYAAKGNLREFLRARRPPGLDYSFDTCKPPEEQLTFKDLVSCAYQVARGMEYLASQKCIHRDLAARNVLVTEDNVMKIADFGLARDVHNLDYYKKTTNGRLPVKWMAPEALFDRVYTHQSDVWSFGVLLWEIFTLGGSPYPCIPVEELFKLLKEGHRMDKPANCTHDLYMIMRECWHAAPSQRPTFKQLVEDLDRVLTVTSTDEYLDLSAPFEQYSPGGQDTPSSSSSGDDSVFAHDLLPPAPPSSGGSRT
Tyrosine-protein kinase Lck (Homo sapiens), sequence (P06239 2-509 limits assumed): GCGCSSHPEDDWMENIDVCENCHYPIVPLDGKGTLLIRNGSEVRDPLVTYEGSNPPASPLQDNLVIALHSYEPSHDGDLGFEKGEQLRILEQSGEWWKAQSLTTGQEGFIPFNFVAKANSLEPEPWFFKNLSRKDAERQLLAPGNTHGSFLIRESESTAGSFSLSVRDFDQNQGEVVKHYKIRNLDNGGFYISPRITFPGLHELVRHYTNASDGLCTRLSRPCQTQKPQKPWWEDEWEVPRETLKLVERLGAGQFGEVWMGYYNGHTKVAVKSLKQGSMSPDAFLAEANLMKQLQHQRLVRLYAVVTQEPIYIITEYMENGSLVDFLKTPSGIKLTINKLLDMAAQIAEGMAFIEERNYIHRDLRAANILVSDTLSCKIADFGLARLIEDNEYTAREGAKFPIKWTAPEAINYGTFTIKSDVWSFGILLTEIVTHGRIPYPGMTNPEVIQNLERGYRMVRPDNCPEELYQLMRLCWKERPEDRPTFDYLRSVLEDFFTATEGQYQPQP

`CNCc1ccccc1-c1csc([C@H](C)Nc2nc(C)nc3cc(OC)c(OC)cc23)c1` [BAY-294] gave a residual activity [1] of 100%, a residual activity [2] of 97% and a residual activity [3] of 100%. For the same compound, the residual activity [4] was 82%, the residual activity [5] was 93% and the residual activity [6] was 97%. It also gave a residual activity [7] of 88%, a residual activity [8] of 89% and a residual activity [9] of 83%. The residual activity [10] was 91%, the residual activity [11] was 100% and the residual activity [12] was 85%. It also gave a residual activity [13] of 70%, a residual activity [14] of 100% and a Ki ([15]; read-out: Ki) of 391 nM. For the same compound, the residual activity [16] was 99%, the residual activity [17] was 100% and the residual activity [18] was 100%. For the same compound, the inhibition [19] was 94.2%, the residual activity [20] was 94% and the residual activity [21] was 93%. The residual activity [22] was 71%, the inhibition (D(2) dopamine receptor) was 50.6% and the residual activity [23] was 76%. The inhibition [24] was 18.2%, the Ki ([25]; read-out: Ki) was 397 nM and the Ki ([25]; read-out: pKi (converted)) was 389 nM.
In the case of `CNCc1ccccc1-c1csc([C@@H](C)Nc2nc(C)nc3cc(OC)c(OC)cc23)c1` [BAY-293], the residual activity [1] is reported as 85%, the residual activity [2] is reported as 97% and the residual activity [3] is reported as 100%. The residual activity [4] was 79%, the residual activity [5] was 100% and the residual activity [6] was 72%. For the same compound, the residual activity [7] was 85%, the residual activity [8] was 79% and the residual activity [9] was 94%. For the same compound, the residual activity [10] was 99%, the residual activity [11] was 100% and the residual activity [12] was 86%. For the same compound, the residual activity [13] was 81%, the residual activity [14] was 100% and the Ki ([15]; read-out: Ki) was 3630 nM. The Ki ([15]; read-out: pKi (converted)) was 3350 nM, the residual activity [16] was 70% and the residual activity [17] was 90%. For the same compound, the residual activity [18] was 97%, the inhibition [19] was 94.2% and the residual activity [20] was 91%. The residual activity [21] was 91%, the residual activity [22] was 69% and the inhibition (D(2) dopamine receptor) was 32.3%. The residual activity [23] was 67%, the inhibition [24] was 12.1% and the Ki ([25]; read-out: Ki) was 338 nM.
